From EP0425840A2, “Use of methenamine in the treatment of viral diseases and malign neoplasies” (Jaeger, Karl-Heinz, Dr. med., priority 1989, dated 1991)
Read-outs that look alike come from different tables or passages of the source.

Experiments:
[1] = test system: L 5178 Y Maus-Lyphom Zellen; assay: Nucleus size after cell lysis and propidium iodide staining (impulse cytophotometer); assay type: cell-based
Text: (§1) HMT wurde zu den Kulturen in verschiedenen Konzentrationen während einer Zeitspanne von 24 Std. zugegeben. Die Populationen und das Zellvolumen wurden mit einem Zytokombgerät (System Michaelis, Mainz) entsprechend dem Coulter Counter-Prinzip bestimmt. Nach der Zellolyse mit 35 mmol/l Natriumzitrat und 0,5% Triton X 100 (Herstellerin Sigma Chemie, München), RNAse Behandlung und […] mit Propidiumjodid wurde die Kerngröße mit Hilfe eines Impulszytofotometers (FACS analizer) Firma Becton and Dickinson) gemessen.
Die Zellkulturen wurden wie unter Beispiel 1 beschrieben behandelt. Bei der Bewertung der Nucleusgröße wurde als Kontrolle die Verteilung der Kerngröße bei unbehandelten Zellen zugrunde gelegt.

[2] = cited from earlier work
[3] = test system: L 5178 Y Maus-Lyphom Zellen; assay: Change of cell volume in L 5178 Y cell culture (Coulter counter principle); assay type: cell-based
Text: as §1, with “Die L 5178 Y Maus-Lyphom Zellen wurden in einem MEM-Spinner Medium mit 10 mmol/l HEPES Puffer, 10% fötalem Kalbserum und 100.000 Einheiten/l Penicillin/Steptomycin (Herstellerin Biocrom, Berlin) kultiviert. Bei Kultivierungsstart lagen 100.000 Zellen/ml Kulturmedium vor, wobei sich 60% der Zellen in der S-Phase befanden. HMT” for “HMT”

[4] = test system: reversen Transkriptase; assay: Activity of reverse transcriptase in the cell nucleus; assay type: cell-based; settings: no method or concentration given
[5] = test system: DNA-Polymerasen; assay: Activity of DNA polymerases in the cell nucleus; assay type: cell-based; settings: no method or concentration given
[6] = test system: L 5178 Y Maus-Lyphom Zellen; assay: Inhibition of cell growth in L 5178 Y cell culture (Coulter counter principle); assay type: cell-based
Text: as §1, with “Die L 5178 Y Maus-Lyphom Zellen wurden in einem MEM-Spinner Medium mit 10 mmol/l HEPES Puffer, 10% fötalem Kalbserum und 100.000 Einheiten/l Penicillin/Steptomycin (Herstellerin Biocrom, Berlin) kultiviert. Bei Kultivierungsstart lagen 100.000 Zellen/ml Kulturmedium vor, wobei sich 60% der Zellen in der S-Phase befanden. HMT” for “HMT”

With `N.N.[Cl][Pt][Cl]` [Cisplatin] the “Anzahl der Kerne mit reduzierter Nucleusgröße (%)” value ([1]; Cisplatin 0,5 x 10⁻⁵ g/ml Kulturvolumen) was 43,51±5,62%, the “Anzahl der Kerne mit reduzierter Nucleusgröße (%)” value ([1]; Cisplatin 0,5 x 10⁻⁶ g/ml Kulturvolumen) was 6,97±2,81% and the “Anzahl der Kerne mit reduzierter Nucleusgröße (%)” value ([1]; Cisplatin 1,0 x 10⁻⁶ g/ml Kulturvolumen) was 9,95±3,13%. The “Anzahl der Kerne mit reduzierter Nucleusgröße (%)” value ([1]; Cisplatin 1,0 x 10⁻⁷ g/ml Kulturvolumen) was 4,07±2,24% and the “Anzahl der Kerne mit reduzierter Nucleusgröße (%)” value ([1]; Cisplatin 2,0 x 10⁻⁶ g/ml Kulturvolumen) was 18,62±4,08%.
For `C1N2CN3CN1CN(C2)C3` [HMT, Methenamine], the “dissoziiert in Formaldehyd und Ammoniumionen” value ([2]; pH 5) is listed as 20%, the “dissoziiert in Formaldehyd und Ammoniumionen” value ([2]; pH 6) is listed as 6% and the “Zellvolumen (µm³)” value ([3]; 0,1 mg HMT/ml Kulturvolumen, Zellfragmente, Mittelwert) is listed as 339,06 µm³. The “Zellvolumen (µm³)” value ([3]; 0,2 mg HMT/ml Kulturvolumen, Zellfragmente, Mittelwert) was 323,75 µm³, the “Zellvolumen (µm³)” value ([3]; 1 x 10⁻² mg HMT/ml Kulturvolumen, Kontrolle 1470,66±390,71) was 1540,82±401,32 µm³ and the “Zellvolumen (µm³)” value ([3]; 1 x 10⁻³ mg HMT/ml Kulturvolumen, Kontrolle 1470,66±390,71) was 1422,27±398,09 µm³. The “Zellvolumen (µm³)” value ([3]; 2 x 10⁻² mg HMT/ml Kulturvolumen, Kontrolle 1470,66±390,71) was 1718,16±487,10 µm³, the “Zellvolumen (µm³)” value ([3]; 2 x 10⁻³ mg HMT/ml Kulturvolumen, Kontrolle 1470,66±390,71) was 1479,35±387,79 µm³ and the “Zellvolumen (µm³)” value ([3]; 2 x 10⁻¹² mg HMT/ml Kulturvolumen, Kontrolle 1470,66±390,71) was 1411,23±395,92 µm³. For the same compound, the “Zellvolumen (µm³)” value ([3]; 2 x 10⁻¹¹ mg HMT/ml Kulturvolumen, Kontrolle 1470,66±390,71) was 1484,77±412,43 µm³, the “Zellvolumen (µm³)” value ([3]; 2 x 10⁻⁴ mg HMT/ml Kulturvolumen, Kontrolle 1470,66±390,71) was 1365,68±371,21 µm³ and the “Zellvolumen (µm³)” value ([3]; 2 x 10⁻⁵ mg HMT/ml Kulturvolumen, Kontrolle 1470,66±390,71) was 1289,92±350,94 µm³. For the same compound, the “Zellvolumen (µm³)” value ([3]; 2 x 10⁻⁶ mg HMT/ml Kulturvolumen, Kontrolle 1470,66±390,71) was 1295,17±379,65 µm³, the “Zellvolumen (µm³)” value ([3]; 2 x 10⁻⁷ mg HMT/ml Kulturvolumen, Kontrolle 1470,66±390,71) was 1279,94±388,43 µm³ and the “Zellvolumen (µm³)” value ([3]; 2 x 10⁻⁸ mg HMT/ml Kulturvolumen, Kontrolle 1470,66±390,71) was 1291,81±410,11 µm³. The “Zellvolumen (µm³)” value ([3]; 2 x 10⁻⁹ mg HMT/ml Kulturvolumen, Kontrolle 1470,66±390,71) was 1292,70±398,55 µm³, the “Zellvolumen (µm³)” value ([3]; 5 x 10⁻² mg HMT/ml Kulturvolumen, Kontrolle 1470,66±390,71) was 1736,76±438,98 µm³ and the Zellvolumen ([3]; between 10⁻⁴ - 10⁻¹² mg/ml Kulturvolumen) was “korrespondiert das Zellvolumen mit dem Zellvolumen der Kontrollen”. The “Anzahl der Kerne mit reduzierter Nucleusgröße (%)” value ([1]; 0,1 mg HMT/ml Kulturvolumen, kernfragmente) was 79,9 (kernfragmente) %, the “Anzahl der Kerne mit reduzierter Nucleusgröße (%)” value ([1]; 0,02 mg HMT/ml Kulturvolumen, Kernfragmente) was 1,0 (Kernfragmente) % and the “Anzahl der Kerne mit reduzierter Nucleusgröße (%)” value ([1]; 0,2 mg HMT/ml Kulturvolumen, Kernfragmente) was 81,3 (Kernfragmente) %. The “Anzahl der Kerne mit reduzierter Nucleusgröße (%)” value ([1]; 0,05 mg HMT/ml Kulturvolumen, Kernfragmente) was 25,1 (Kernfragmente) %, the “Anzahl der Kerne mit reduzierter Nucleusgröße (%)” value ([1]; 2 x 10⁻² mg HMT/ml Kulturvolumen) was 6,05+2,07% and the “Anzahl der Kerne mit reduzierter Nucleusgröße (%)” value ([1]; 2 x 10⁻³ mg HMT/ml Kulturvolumen) was 19,62±3,89%. For the same compound, the “Anzahl der Kerne mit reduzierter Nucleusgröße (%)” value ([1]; 2 x 10⁻¹² mg HMT/ml Kulturvolumen) was 25,77±4,29%, the “Anzahl der Kerne mit reduzierter Nucleusgröße (%)” value ([1]; 2 x 10⁻¹¹ mg HMT/ml Kulturvolumen) was 27,17±4,13% and the “Anzahl der Kerne mit reduzierter Nucleusgröße (%)” value ([1]; 2 x 10⁻⁴ mg HMT/ml Kulturvolumen) was 13,41±3,71%. The “Anzahl der Kerne mit reduzierter Nucleusgröße (%)” value ([1]; 2 x 10⁻⁵ mg HMT/ml Kulturvolumen) was 11,14±3,60%, the “Anzahl der Kerne mit reduzierter Nucleusgröße (%)” value ([1]; 2 x 10⁻⁶ mg HMT/ml Kulturvolumen) was 4,50±2,92% and the “Anzahl der Kerne mit reduzierter Nucleusgröße (%)” value ([1]; 2 x 10⁻⁷ mg HMT/ml Kulturvolumen) was 1,11±0,58%. The “Anzahl der Kerne mit reduzierter Nucleusgröße (%)” value ([1]; 2 x 10⁻⁸ mg HMT/ml Kulturvolumen) was 20,86±4,07%, the “Anzahl der Kerne mit reduzierter Nucleusgröße (%)” value ([1]; 5 x 10⁻² mg HMT/ml Kulturvolumen) was 4,87±91,93% and the “Kerne größenreduziert im Vergleich zu den Kontrollen” value ([1]; range of normal cell volume, 10⁻⁴- 10⁻¹² mg HMT/ml Kulturvolumen) was 25%. For the same compound, the “Aktivitäten der reversen Transkriptase im Zellkern” value [4] was “beeinträchtigt”, the “Aktivitäten der DNA-Polymerasen im Zellkern” value [5] was “beeinträchtigt” and the activity at 100 µg/mL ([6]; Mus musculus, L5178Y, 24 h, 0,1 mg HMT/ml Kulturvolumen, 24 Std., Kontrolle = 100, read-out: Zellwachstum (%)) was 8%. The activity at 20 µg/mL ([6]; Mus musculus, L5178Y, 24 h, 0,02 mg HMT/ml Kulturvolumen, 24 Std., Kontrolle = 100, read-out: Zellwachstum (%)) was 61%, the activity at 200 µg/mL ([6]; Mus musculus, L5178Y, 24 h, 0,2 mg HMT/ml Kulturvolumen, 24 Std., Kontrolle = 100, read-out: Zellwachstum (%)) was 6% and the activity at 50 µg/mL ([6]; Mus musculus, L5178Y, 24 h, 0,05 mg HMT/ml Kulturvolumen, 24 Std., Kontrolle = 100, read-out: Zellwachstum (%)) was 35%. The Zellwachstum ([6]; from a concentration of 1 x 10⁻³ mg/ml HMT downwards) was “nicht mehr statistisch signifikant beeinflußt”.
